Results published in US9415047B2, “Use of benzo five-membered nitrogen heterocyclic piperazine or piperidine derivatives” (Liaoning Emmy Biological Pharmaceutical Co., Ltd., priority 2012, dated 2016).

Key:
Calcium Channel (Ca^2+) = experiment: Antagonism of accumulative constriction of rabbit aorta by CaCl2; settings: calcium free high kalium depolarization
Description: (§1) Rabbits were hit to be dizzy, with thoracic cavity quickly cut open, descending aorta exposed, connective tissues and surrounding fatty tissues (for hydroxytryptamine receptor antagonism test, endothelia should be removed with smooth stainless steel rod) removed, the aorta was cut into 3-5 mm vascular rings which were penetrated together with a steel wire with one end fixed on ventilation hook, another end on pressure tonotransducer. The aorta rings were put into a bath tube with 20 ml of nutritional solution, and the tension changes were recorded by using the recorder. The temperature of bath tube was maintained at 37±0.5° C., and mixed gas (95% O2+5% CO2) was ventilated at a rate of I-2 bubbles/second. The initial load of the sample was 1.5 g, nutritional solution was changed for every 20 min. The sample was balanced for 2 hours, and the experiment would be started when baseline became stable.
After sample tension became stable, calcium K-H solution was used to flush the sample for 3 times, and incubated with calcium free K-H solution for 40 min. Calcium free high kalium solution was added into the sample for depolarization for 20 min, then CaCl2 (10^−6-10^−2 mol/L) was added into bath tube till maximal response was achieved, and then waveform was recorded. Then K-H solution was used to flush the sample repeatedly, the K-H solution was changed for every 20 min, and the sample was balanced for 60 min. […]
After sample tension became stable, calcium K-H solution was used to flush the sample for 3 times, and incubated with calcium free K-H solution for 40 min. Calcium free high kalium solution was added into the sample for depolarization for 20 min, then CaCl2 (10^−6-10^−2 mol/L) was added into bath tube till maximal response was achieved, and then waveform was recorded. […] Calcium free high kalium solution was added into the sample for depolarization for 20 min, then amlodipine (10^−7 mol/L) was added into bath tube, which was incubated for 15 min, then CaCl2 (10^−6-10^−2 mol/L) was added by using the same method till maximal response was achieved, and then waveform was recorded. […]

[1] = tested on: high kalium concentration constricted rabbit aorta; experiment: Relaxing effects on vascular smooth muscle constricted by high kalium concentration in vitro; settings: relaxation of rabbit aorta constricted by high kalium solution (K+ 60 mmol/L), mean±SEM, n=5; for EC50: Oryctolagus cuniculus
Outline: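 Rabbit aortic rings pre-challenged with adrenaline (10^−5 mol/L), washed and re-equilibrated 60 min in K-H solution, then constricted with high-K+ solution; compounds added cumulatively over 1×10^−10–1×10^−2 mol/L depending on series. Relaxation expressed as % of maximal relaxation vs −log concentration; mean±SEM, n=5.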

5-HT2A receptor = 5-HT2A receptor (Oryctolagus cuniculus, UniProt G1SYA7); experiment: Antagonism of accumulative constriction of rabbit aorta by 5-HT
Description: as §1
After sample tension became stable, a piece of waveform was recorded, 5-HT (10^−7-3×10^−4 mol/L) was added into the bath tube until maximal response, then waveform was recorded. […] 5-HT was also added by using the same method 20 min later. The maximal response was considered 100%, 5-HT constriction percentage was used as Y axis, negative logarithms of different concentrations of 5-HT were used as X axis to draw dose effective curve.
After sample tension became stable, a piece of waveform was recorded, 5-HT (10^−8-10^−3 mol/L) was added into the bath tube until maximal response, then waveform was recorded. […] 5-HT was also added by using the same method 20 min later. The maximal response was considered 100%, 5-HT constriction percentage was used as Y axis, negative logarithms of different concentrations of 5-HT were used as X axis to draw dose effective curve (data were expressed in mean±SEM ( ? ), *P<0.05, **P<0.01, n=7).
After sample tension became stable, a piece of waveform was recorded, 5-HT (10^−8-3×10^−4 mol/L) was added into the bath tube until maximal response, then waveform was recorded. […] 5-HT was also added by using the same method 20 min later. […]

α1 receptor = experiment: Antagonism of accumulative constriction of rabbit aorta by noradrenaline (α-receptor agonist)
Description: Then samples were flushed with K-H solution repeatedly, K-H solution was changed for every 20 min, and the samples were balanced for 60 min. After baseline recovered to be stable, doxazosin (10^−7 mol/L) was added, and noradrenaline (NA) (10^−8-6×10^−5 mol/L) was added by using the same method 15 min later.
NA was also added by using the same method 15 min later.

[2] = tested on: AD constricted rabbit aorta; experiment: Relaxing effects on vascular smooth muscle constricted by adrenaline hydrochloride (AD) in vitro; settings: relaxation of rabbit aorta constricted by adrenaline (10^−5 mol/L), mean±SEM, n=5; for EC50: Oryctolagus cuniculus
Outline: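 Rabbit aortic strips in K-H solution precontracted with adrenaline hydrochloride (10^−5 mol/L) after a reproducible second contraction; compounds added cumulatively over ranges from 1×10^−10 up to 1×10^−2 mol/L depending on the compound series. Relaxation expressed as % of maximal relaxation versus −log concentration, mean±SEM, n=5.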

[3] = tested on: NA constricted rabbit aorta; experiment: Relaxing effects on vascular smooth muscle constricted by noradrenaline (NA) in vitro; settings: relaxation of rabbit aorta constricted by noradrenaline (10^−5 mol/L), mean±SEM, n=5; for EC50: Oryctolagus cuniculus
Description: Adrenaline hydrochloride (AD) (10^−5 mol/L) was added into a bath tube to induce constriction, when maximal constriction was achieved, the sample was completely flushed, K-H solution was changed for every 20 min. Contents in the tube was balanced for 60 min, when baseline recovered to be stable, noradrenaline bitartrate (NA) (10^−5 mol/L) was added to induce constriction. When the later maximal constriction response was basically consistent with the former one, the prepared compound solutions were subsequently added, including compound II-84 to II-123 solutions (1×10^−10-1×10^−2 mol/L), compound II-124 to II-157 solutions (1×10^−10-1×10^−3 mol/L), to record the waveforms. Relaxing percentage of the compound was used as Y axis, maximal relaxation response was 100%, negative logarithm of different concentration was used as X axis, to draw dose effect curve (expressed in mean±SEM ( ? ), n=5).

Kunming mice = experiment: Marrow micronucleus test on mice; type: in vivo; settings: dosed 4 days, test on day 5, II-2 120, II-85 74, cyclophosphane 60 mg/kg/day
Description: Ten Kunming mice (Experimental Animal Center, China Medical University), half male and half female, were used. Compound II-2 was administered via gastric gavage at 120 mg/kg/day, and II-85 was administered to 74 mg/kg/day. The drug was administered for 4 days continuously. Marrow micronucleus test was performed on day 5.
Mice in positive control group were administered cyclophosphane at 60 mg/kg/day. Mice in negative control group were administered normal saline at 0.1 ml/10 g/day. The drug was administered for 4 days continuously. Marrow micronucleus test was performed on day 5.
The mice were killed by snapping neck, and then femur and sternum were excised, with blood and muscles removed, epiphysis cut off. Then marrow from sternum was squeezed to clean glassslide with bovine serum by using a pair of hemostatic forceps, or marrow on femur was flushed directly with bovine serum onto clean glassslide. Then the substance on glassslide were mixed well and smeared. Then the prepared and dried marrow smears were put into staining tank with methanol, fixed for 15 min, picked out to dry in the open air. After marrow smears were dried, it would be stained in freshly prepared Giemsa solution (1 volume of Giemsa stock solution and 9 volumes of pH 6.8 phosphate buffer) for 10 min, staining solution was flushed away with little stream. Then the smear was dried in the open air and observed under a microscope.

Sequence of 5-HT2A receptor (G1SYA7 1-469): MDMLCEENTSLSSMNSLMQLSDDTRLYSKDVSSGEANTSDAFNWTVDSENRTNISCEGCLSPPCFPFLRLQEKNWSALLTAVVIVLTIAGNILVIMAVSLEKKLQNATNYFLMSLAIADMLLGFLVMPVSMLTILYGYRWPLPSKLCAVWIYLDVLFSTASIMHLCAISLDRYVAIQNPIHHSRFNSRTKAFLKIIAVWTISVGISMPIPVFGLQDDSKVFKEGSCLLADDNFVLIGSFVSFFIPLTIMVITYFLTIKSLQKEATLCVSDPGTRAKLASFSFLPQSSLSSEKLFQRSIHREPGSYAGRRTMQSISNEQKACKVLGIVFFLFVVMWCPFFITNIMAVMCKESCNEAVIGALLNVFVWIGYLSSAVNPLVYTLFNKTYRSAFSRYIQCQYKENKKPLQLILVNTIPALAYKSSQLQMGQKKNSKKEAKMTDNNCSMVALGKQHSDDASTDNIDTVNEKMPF

Row | SMILES | EC50 [2] [µM] | EC50 [3] [µM] | −logEC50 [1] | −logEC50 [2] | further results
1 | FC(F)(F)c1cccc(N2CCN(CCCCn3nnc4ccccc43)CC2)c1 [II-31, 1-(4-(4-(3-trifluoromethylphenyl)piperazine-1-yl)butyl)-1H-benzotriazole] | 0.646 | – | – | – | PA2 value to resist constriction of rabbit aorta by CaCl2 (Calcium Channel (Ca^2+)): 6.56±0.032; EC50 [1]: 2.82 µM; Kb (5-HT2A receptor): 0.188 µM; PA2 value to resist constriction of rabbit aorta by NA (α1 receptor): 6.02±0.13
2 | N#Cc1ccc2cnn(CCCCN3CCC(c4noc5cc(F)ccc45)CC3)c2c1 [II-104, N-(4-(6-cyanobenzopyrazol)butyl)-4-(3-(6-fluorobenzisoxazolyl))piperidine] | 9.55 | 9.55 | – | – | EC50 [1]: 380 µM
3 | Clc1cccc(C2CCN(CCCCn3cnc4ccccc43)CC2)c1 [II-107, N-(4-(1H-benzimidazoyl-1-yl)butyl)-4-(3-chlorophenyl)piperidine] | – | 7.76 | 3.69 ± 0.02 | 5.03 ± 0.02 | –
4 | Clc1cccc(C2CCN(CCCCn3nnc4ccccc43)CC2)c1 [II-108, N-(4-(1H-benzotriazole-1-yl)butyl)-4-(3-chlorophenyl)piperidine] | – | 5.37 | 3.82 ± 0.03 | 5.16 ± 0.03 | –
5 | FC(F)(F)c1cccc(C2CCN(CCCCn3cnc4ccccc43)CC2)c1 [II-109, N-(4-(1H-benzimidazoyl-1-yl)butyl)-4-(3-trifluoromethylphenyl)piperidine] | – | 0.479 | 5.01 ± 0.04 | 6.21 ± 0.04 | –
6 | FC(F)(F)c1cccc(C2CCN(CCCCn3nnc4ccccc43)CC2)c1 [II-110, N-(4-(1H-benzotriazole-1-yl)butyl)-4-(3-trifluoromethylphenyl)piperidine] | – | 0.355 | 5.12 ± 0.03 | 6.36 ± 0.03 | –
7 | Fc1cccc(C2CCN(CCCCn3cnc4ccccc43)CC2)c1 [II-111, N-(4-(1H-benzimidazoyl-1-yl)butyl)-4-(3-fluorophenyl)piperidine] | – | 21.4 | 3.44 ± 0.02 | 4.89 ± 0.02 | –
8 | COc1ccccc1C1CCN(CCCCn2cnc3ccccc32)CC1 [II-112, N-(4-(1H-benzimidazoyl-1-yl)butyl)-4-(2-methoxylphenyl)piperidine] | – | 28.2 | 3.38 ± 0.03 | 4.76 ± 0.03 | –
9 | Fc1ccc2nnn(CCCCN3CCC(c4cccc(C(F)(F)F)c4)CC3)c2c1 [II-113, N-(4-(6-fluoro-1H-benzotriazole-1-yl)butyl)-4-(3-trifluoromethylphenyl)piperidine] | – | 6.17 | 4.03 ± 0.04 | 5.31 ± 0.04 | –
10 | COc1ccc2nnn(CCCCN3CCC(c4cccc(C(F)(F)F)c4)CC3)c2c1 [II-114, N-(4-(6-methoxyl-1H-benzotriazole-1-yl)butyl)-4-(3-trifluoromethylphenyl)piperidine] | – | 17 | 3.56 ± 0.03 | 4.86 ± 0.03 | –
11 | N#Cc1ccc2nnn(CCCCN3CCC(c4cccc(C(F)(F)F)c4)CC3)c2c1 [II-115, N-(4-(6-cyano-1H-benzotriazole-1-yl)butyl)-4-(3-trifluoromethylphenyl)piperidine] | – | 29.5 | 3.23 ± 0.02 | 4.79 ± 0.02 | –
12 | FC(F)(F)c1cccc(C2CCN(CCCOn3nnc4ccccc43)CC2)c1 [II-116, N-(4-(1H-benzotriazole-1-yl)propoxyl)-4-(3-trifluoromethylphenyl)piperidine] | – | 4.37 | 4.22 ± 0.05 | 5.56 ± 0.05 | –
13 | FC(F)(F)c1cccc(C2CCN(CCCOn3cnc4ccccc43)CC2)c1 [II-117, N-(4-(1H-benzimidazole-1-yl)propoxyl)-4-(3-trifluoromethylphenyl)piperidine] | – | 7.08 | 4.17 ± 0.06 | 5.31 ± 0.06 | –
14 | c1coc(C2CCN(CCCCn3cnc4ccccc43)CC2)c1 [II-118, N-(4-(1H-benzimidazoyl-1-yl)butyl)-4-(2-furyl)piperidine] | – | 58.9 | 3.53 ± 0.03 | 4.43 ± 0.05 | –
15 | c1ccc2c(c1)ncn2CCCCN1CCC(c2ccncc2)CC1 [II-119, N-(4-(1H-benzimidazoyl-1-yl)butyl)-4-(4-pyridyl)piperidine] | – | 21.9 | 3.26 ± 0.04 | 4.86 ± 0.04 | –
16 | c1cnc(C2CCN(CCCCn3cnc4ccccc43)CC2)nc1 [II-120, N-(4-(1H-benzimidazoyl-1-yl)butyl)-4-(2-pyrimidinyl)piperidine] | 19.1 | 30.2 | 3.32 ± 0.02 | – | –
17 | c1ccc2c(c1)nnn2CCCCN1CCC(C2CCCCC2)CC1 [II-121, N-(4-(1H-benzotriazole-1-yl)butyl)-4-(4-cyclohexyl)piperidine] | 40.7 | 36.3 | 3.14 ± 0.05 | – | –
18 | c1ccc2c(C3CCN(CCCCn4nnc5ccccc54)CC3)cccc2c1 [II-122, N-(4-(1H-benzotriazole-1-yl)butyl)-4-(1-naphthyl)piperidine] | 60.3 | 45.7 | 3.04 ± 0.03 | – | –
19 | c1ccc2nc(C3CCN(CCCCn4nnc5ccccc54)CC3)cnc2c1 [II-123, N-(4-(1H-benzotriazole-1-yl)butyl)-4-(2-quinoxalinyl)piperidine] | 14.8 | 29.5 | 3.13 ± 0.04 | – | –
20 | COc1ccc2nnn(CCCN3CCC(c4noc5cc(F)ccc45)CC3)c2c1 [II-140, N-(3-(6-methoxyl-1H-benzotriazole-1-yl)propyl)-4-(3-(6-fluorobenzisoxazolyl))piperidine] | 5.89 | – | 5.02 ± 0.05 | – | −logEC50 [3]: 5.31 ± 0.05
21 | COc1ccc2nnn(OCCN3CCC(c4noc5ccccc45)CC3)c2c1 [II-147, N-(2-(6-methoxylbenzotriazolyl)ethoxyl)-4-(3-benzisoxazolyl)piperidine] | 93.3 | 49 | – | – | EC50 [1]: 295 µM
22 | c1ccc2c(c1)nnn2OCCN1CCC(c2noc3ccccc23)CC1 [II-148] | 55 | 91.2 | – | – | EC50 [1]: 55 µM
23 | O=P1(N(CCCl)CCCl)NCCCO1 (stereo not drawn) [cyclophosphane, reference compound] | – | – | – | – | micronuclei cells in 1000 polychromatic erythrocytes (Kunming mice): 12%
